Source: patent US20080063699A1, “Method of Administering Cationic Liposomes Comprising an Active Drug” (priority 2003, published 2008)
Values after ≈ are worked out from the molar mass of the structure shown. Values joined by “and” are separate entries in the source; they are usually repeats but may differ in a detail not shown here. Equal entries are not always repeated. Where two headings read alike, the source gives them in different places.

Assays:
[1] = system: drug-sensitive human uterus sarcoma line Mes-SA; assay: Growth inhibitory assay (MTT, 72 h); format: cell-based; settings: FIG. 5
Protocol: (§1) FIG. 3-5: The growth inhibitory assay was performed in 24-well plates with each drug concentration tested in duplicate (n=2 wells). 4×10^4 cells per well were seeded into a 24-well plate and incubated over night. The following day, 10-11 concentrations of the respective drug formulation were added for 72 h to cover the range depicted in the respective graphs. Finally, the cell viability was determined by a standard MTT-assay measuring the activity of mitochondrial-dehydrogenases.
(§2) The growth inhibitory assay was performed in 24-well plates with each drug concentration tested in duplicate (n=2 wells). 4×10^4 cells per well were seeded into a 24-well plate and incubated over night. The following day, 10-11 concentrations of the respective drug formulation were added for 72 h to cover the range depicted in the respective graphs. Finally, the cell viability was determined by a standard MTT-assay measuring the activity of mitochondrial dehydrogenases.
(§3) The highly paclitaxel resistant derivative cell line Mes-SA/Dx-5MBT was selected with increasing paclitaxel concentrations from the commercially available line Mes-SA/Dx-5 (ATCC, {Harker, 1986 #29}).

[2] = system: Solid orthotopic L3.6pl pancreas tumor; assay: Anti-tumor efficacy in combination with gemcitabine (50 mg/kg); format: in vivo; settings: for tumor size: day 28 after tumor inoculation, after harvest
Source text: • Species: male Balb/c nu/nu mice • Tumor model: Solid orthotopic L3.6pI pancreas tumor (highly mestastatic; Bruns C J, Harbison M T, Kuniyasu H, Eue I, Fidler I J. In vivo selection and characterization of metastatic variants from human pancreatic adenocarcinoma by using orthotopic implantation in nude mice. Neoplasia 1999; 1(1):50-62.) • Supplier: Charles River France
Tumor volume palpated at day 10, 12, 14, 17, 19, 21, 24 after inoculation and at day 26, 28 after harvesting
Necrospy after harvest at day 26 and 28

[3] = system: drug-resistant human dermal melanoma line Sk-Mel28; assay: Growth inhibitory assay (MTT, 72 h); format: cell-based; settings: SK-MEL-28, FIG. 10
Protocol: FIG. 10: Inhibitory Potential of paclitaxel against the drug-resistant human dermal melanoma line Sk-Mel28. The growth inhibitory assay was performed in 24-well plates with each drug concentration tested in duplicate (n=2 wells). 4×10^4 cells per well were seeded into a 24-well plate and incubated over night. The following day, 11 concentrations of the respective drug formulation were added for 72 h to cover the range depicted in the respective graphs. Finally, the cell viability was determined by a standard MTT-assay measuring the activity of mitochondrial dehydrogenases.
(§4) 2. […] In vivo, these cells were injected into SCID mice bearing human skin transplants between human skin transplant and mouse acceptor skin. Treatments were started on day 17 after tumor cell injection and extended to day 28 with doses (12.5 mg/kg b.w.) every second day. The therapeutic potential of MBT-0206 and paclitaxel were compared on day 7 after start of treatments (see table below). […] Upon treatment with MBT-0206, tumors only marginally grew to about 1/10 the size of paclitaxel (paclitaxel)-treated tumors.

[4] = system: highly drug-resistant uterus sarcoma line Mes-SA/Dx-5MBT; assay: Growth inhibitory assay (MTT, 72 h); format: cell-based, human; settings: for IC50: Homo sapiens, MES-SA
Protocol: as §1, §2
These cell lines were selected by stepwise increasing the concentration of paclitaxel in the culture medium.
as §3

[5] = system: parental drug-sensitive murine colon carcinoma line Colon-26; assay: Growth inhibitory assay (MTT, 72 h); format: cell-based; settings: FIG. 7
Protocol: (§5) FIG. 6-7: The growth inhibitory assay was performed in 24-well plates with each drug concentration tested in duplicate (n=2 wells). 4×10^4 cells per well were seeded into a 24-well plate and incubated over night. The following day, 10-11 concentrations of the respective drug formulation were added for 72 h to cover the range depicted in the respective graphs. Finally, the cell viability was determined by a standard MTT-assay measuring the activity of mitochondrial dehydrogenases.

[6] = system: highly drug-resistant murine colon carcinoma line Colon-26MBT; assay: Growth inhibitory assay (MTT, 72 h); format: cell-based; settings: Mus musculus
Protocol: as §5

[7] = system: Solid orthotopic L3.6pl pancreas tumor; assay: Anti-tumor efficacy in combination with gemcitabine (100 mg/kg); settings: for final tumor volume compared to the control group: day 27, Gemzar 100 mg/kg i.p., MBT-0206/paclitaxel 5 mg/kg i.v.
Protocol: Tumor size of L3.6pI pancreatic tumors 19 days after start of treatment. Treatment with 10% trehalose, paclitaxel, MBT-0206, Gemzar (gemcitabine) and the combination of both MBT-0206 and Gemzar started 8 days after tumor cell inoculation. Gemzar was applied i.p. at a dose of 100 mg/kg bw twice a week (Mon, Thu). paclitaxel and MBT-0206 were applied i.v. on a Mon, Wed, Fri schedule at a paclitaxel dose of 5 mg/kg bw. The combination group received both MBT-0206 and Gemzar with the respective schedule. Tumors were measured by palpation with a calliper on day 23 and 27. Mean±SEM; n=9 per group.
Metastases at day 19 after start of treatment. Treatment with 10% trehalose, paclitaxel, MBT-0206, Gemzar (gemcitabine) and the combination of both MBT-0206 and Gemzar started at day 8 after tumor cell inoculation. Geinzar was applied i.p. at a dose of 100 mg/kg bw twice a week (Mon, Thu). paclitaxel and MBT-0206 were applied i.v. on a Mon, Wed, Fri schedule at a paclitaxel dose of 5 mg/kg bw. The combination group received both MBT-0206 and Gemzar with the respective schedule, n=9 per group.
Tumor volume palpated at day 23, 26 after inoculation and after harvesting
Necrospy after harvest at day 27

[8] = system: moderatly drug-resistant uterus sarcoma line Mes-SA/Dx-5; assay: Growth inhibitory assay (MTT, 72 h); format: cell-based, human
Protocol: as §1, §3

Sk-Mel28 tumor = assay: Paclitaxel-resistant melanoma model with human skin transplants in vivo; parameters: species or system SCID mice; settings: 12.5 mg/kg b.w. every second day
Protocol: as §4
Mes-SA/Dx-5MBT tumor model: tumor volumes on day 23 after start of treatment (9 treatments, i.e. 3 per week, from day 12 to day 31 after tumor cell injection) Sk-Mel tumor model: tumor volumes on day 7 after start of treatment (6 treatments very other day, i.e. from day 17 to day 28 after tumor cell injection).

Structure (SMILES) | IC50 [1] [µg/mL] | tumor size [2] [mm^3] | IC50 [3] [µg/mL] | IC50 (50% growth inhibition) ([4]; 72 h, MTT) [µg/mL] | fold increased paclitaxel tolerance compared to the parental line Mes-SA (by IC50 values) ([4]; FIG. 9) [fold] | IC50 ([4]; 72 h, MTT, read-out: IC50) [µg/mL] | IC50 ([4]; 72 h, MTT, read-out: IC50 (50% growth inhibition)) | sensitivity of the line for MBT-0206 and paclitaxel [5] | IC50 ([6]; FIG. 6, read-out: IC50) [µg/mL] | IC50 ([6]; read-out: IC50 (50% growth inhibition)) | final tumor volume compared to the control group [7] [%] | weight loss (body weight) ([7]; during the last 11 days) [%] | fold lower IC50 value than in Mes-SA/Dx-5MBT [8] | effect on tumor development (Sk-Mel28 tumor) | mortality at day 24 ([2]; n=9 per group, MBT-0206 5 mg/kg i.v., Gemzar 50 mg/kg i.p.) [animals dead]
CC(=O)O[C@H]1C(=O)[C@@]2(C)[C@H]([C@H](OC(=O)c3ccccc3)[C@]3(O)C[C@H](OC(=O)[C@H](O)[C@@H](NC(=O)c4ccccc4)c4ccccc4)C(C)=C1C3(C)C)[C@]1(OC(C)=O)CO[C@@H]1C[C@@H]2O [paclitaxel] | 0.0055 (≈ 0.00644 µM) | 536 | 5.8 (≈ 6.79 µM) | 0.867 (≈ 1.02 µM) | ~150 | 0.87 (≈ 1.02 µM) | ~1 µM and ~0.867 µg/mL | equally sensitive | ~5 (≈ 5.86 µM) | ~5 µM and ~5 µg/mL | 68 | 2 | approximately 7 fold | completely ineffective | –
Nc1ccn([C@@H]2O[C@H](CO)[C@@H](O)C2(F)F)c(=O)n1 [Gemzar, gemcitabine] | – | 398 | – | – | – | – | – | – | – | – | 47 | – | – | – | 1
